The supplement of paper PMC8149375
Several values for one entry are separate records, joined by “and”; a condition that tells them apart may be missing. Equal values may be shown once.

What was measured:
Details in all cases: treatment: drug + dasatinib (fixed dose, not stated); 5 days
[1] = test system: 769-P; assay: GI50 of drug in presence of dasatinib; higher = less potent
Method: (§1)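 Primary HTS combination arm: 8 RCC cell lines treated with 8 doses (up to 10 uM) of each library drug plus a fixed dose of dasatinib (dose not stated) for 5 days; viability read by CellTiter-Glo and normalised to DMSO. GI50 was fitted with XLfit, AUC is the area under the dose-response curve, and minimum viability is the lowest fraction of DMSO viability across doses.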

[2] = test system: 786-O; assay: as above
Method: as §1

[3] = test system: A498; assay: as above
Method: as §1

[4] = test system: ACHN; assay: as above
Method: as §1

[5] = test system: CAKI-1; assay: as above
Method: as §1

[6] = test system: SN12C; assay: as above
Method: as §1

[7] = test system: TK-10; assay: as above
Method: as §1

[8] = test system: UO-31; assay: as above
Method: as §1

[9] = test system: 769-P; assay: minimum viability across doses, drug + dasatinib, relative to DMSO (fraction); higher = less growth inhibition
Method: as §1

[10] = test system: 786-O; assay: as above
Method: as §1

[11] = test system: A498; assay: as above
Method: as §1

[12] = test system: ACHN; assay: as above
Method: as §1

[13] = test system: CAKI-1; assay: as above
Method: as §1

[14] = test system: SN12C; assay: as above
Method: as §1

[15] = test system: TK-10; assay: as above
Method: as §1

[16] = test system: UO-31; assay: as above
Method: as §1

[17] = test system: 769-P; assay: AUC of dose-response viability curve, drug + dasatinib, normalised to DMSO (arbitrary (AUC of normalised viability)); higher = less growth inhibition
Method: as §1

[18] = test system: 786-O; assay: as above
Method: as §1

[19] = test system: A498; assay: as above
Method: as §1

[20] = test system: ACHN; assay: as above
Method: as §1

[21] = test system: CAKI-1; assay: as above
Method: as §1

[22] = test system: SN12C; assay: as above
Method: as §1

[23] = test system: TK-10; assay: as above
Method: as §1

[24] = test system: UO-31; assay: as above
Method: as §1

Structure (SMILES)	GI50 of drug [2]	GI50 of drug [4]	GI50 of drug [1]	GI50 of drug [3]	GI50 of drug [5]	GI50 of drug [6]	GI50 of drug [7]	GI50 of drug [8]	minimum viability across doses [9]	minimum viability across doses [10]	minimum viability across doses [11]	minimum viability across doses [12]	minimum viability across doses [13]	minimum viability across doses [14]	minimum viability across doses [15]	minimum viability across doses [16]	AUC of dose-response viability curve [17]	AUC of dose-response viability curve [18]	AUC of dose-response viability curve [19]	AUC of dose-response viability curve [20]	AUC of dose-response viability curve [21]	AUC of dose-response viability curve [22]	AUC of dose-response viability curve [23]	AUC of dose-response viability curve [24]
O=C1NC(=O)C(=Cc2ccc(-c3ccc(F)cc3)o2)S1 (stereo in doubt) + Cc1nc(Nc2ncc(C(=O)Nc3c(C)cccc3Cl)s2)cc(N2CCN(CCO)CC2)n1 [dasatinib]	> 10000 nM	> 10000 nM	> 10000 nM	> 10000 nM	> 10000 nM	> 10000 nM	> 10000 nM	> 10000 nM	0.594	0.519	0.903	0.607	0.638	0.655	0.633	0.657	2.42	2.24	3.83	2.28	2.46	2.4	2.37	3.43
CCOc1ccn(-c2ccc(F)cc2)c(=O)c1C(=O)Nc1ccc(Oc2ccnc(N)c2Cl)c(F)c1 + Cc1nc(Nc2ncc(C(=O)Nc3c(C)cccc3Cl)s2)cc(N2CCN(CCO)CC2)n1 [dasatinib]	1570 nM	642 nM	> 10000 nM	> 10000 nM		> 10000 nM	> 10000 nM	> 10000 nM	0.495	0.35	0.61	0.247	0.118	0.528	0.634	0.695	2.36	1.85	2.83	1.66	1.92	2.27	2.43	3.54
N#Cc1c(O)c2c(-c3ccc(-c4ccccc4O)cc3)csc2[nH]c1=O + Cc1nc(Nc2ncc(C(=O)Nc3c(C)cccc3Cl)s2)cc(N2CCN(CCO)CC2)n1 [dasatinib]	> 10000 nM	> 10000 nM	> 10000 nM	> 10000 nM	> 10000 nM	> 10000 nM	> 10000 nM	> 10000 nM	0.683	0.6	0.86	0.595	0.655	0.634	0.705	1.02	2.56	2.63	3.43	2.25	2.38	2.35	2.78	4.43
CO[C@@H](C(=O)N1Cc2[nH]nc(NC(=O)c3ccc(N4CCN(C)CC4)cc3)c2C1)c1ccccc1 + Cc1nc(Nc2ncc(C(=O)Nc3c(C)cccc3Cl)s2)cc(N2CCN(CCO)CC2)n1 [dasatinib]	184 nM and 231 nM	18.2 nM and 153 nM	2950 nM and 3100 nM	1310 nM and 2720 nM	170 nM and 198 nM	491 nM and 366 nM	1560 nM and 1030 nM	3120 nM and 3920 nM	0.346 and 0.337		0.36 and 0.384	0.0933 and 0.0842	0.0301 and 0.0221	0.159 and 0.145	0.146 and 0.131	0.0249 and 0.0141	2.12 and 2.33	1.57 and 1.49	2.44 and 2.82	1.37 and 1.42	1.46	1.95 and 1.86	2.19 and 2.06	2.67 and 3.57
C[C@@H]1COC(Nc2ccc3ncnc(Nc4ccc(OCc5nccs5)c(Cl)c4)c3c2)=N1 + Cc1nc(Nc2ncc(C(=O)Nc3c(C)cccc3Cl)s2)cc(N2CCN(CCO)CC2)n1 [dasatinib]	> 10000 nM	96.4 nM	267 nM	> 10000 nM	3550 nM	> 10000 nM	614 nM	> 10000 nM	0.18	0.49	0.988	0.286	0.318	0.638	0.318	0.679	1.87	2.05	4.08	1.62	2.16	2.36	2.03	3.53
COc1cc(Nc2c(C#N)cnc3cc(OCCCN4CCN(C)CC4)c(OC)cc23)c(Cl)cc1Cl [Bosutinib (SKI-606)] + Cc1nc(Nc2ncc(C(=O)Nc3c(C)cccc3Cl)s2)cc(N2CCN(CCO)CC2)n1 [dasatinib]	2190 nM	56.8 nM	1070 nM	3350 nM	501 nM	1330 nM	1020 nM		0.105	0.0253	0.294	0.103	0.0492	0.199	0.0934	0.0097	2.03	2.37	2.84	1.45	1.85	2.24	2.26	2.22
CCOc1cc2ncc(C#N)c(Nc3ccc(OCc4ccccn4)c(Cl)c3)c2cc1NC(=O)/C=C/CN(C)C [Neratinib (HKI-272)] + Cc1nc(Nc2ncc(C(=O)Nc3c(C)cccc3Cl)s2)cc(N2CCN(CCO)CC2)n1 [dasatinib]	611 nM	4.66 nM	102 nM	6990 nM	114 nM	215 nM	74.2 nM		0.0611	0.298	0.51	0.0762	0.0888	0.0625	0.228	0.0167	1.59	1.88	3.02	0.82	1.44	1.74	1.57	2.08
CCC(=O)N1CCN(c2ccc(-n3c(=O)ccc4cnc5ccc(-c6cnc7ccccc7c6)cc5c43)cc2C(F)(F)F)CC1 [Torin 1] + Cc1nc(Nc2ncc(C(=O)Nc3c(C)cccc3Cl)s2)cc(N2CCN(CCO)CC2)n1 [dasatinib]	17.4 nM	4.88 nM	21.8 nM	73.9 nM	27.7 nM	26.6 nM		77 nM	0.0737	0.0106	0.025	0.0484	0.0196	0.0936	0.0693	0.00689	1.06	0.988	1.53	0.722	0.983	1.16	1.13	1.5
Nc1ccc(-c2ccc3ncc4ccc(=O)n(-c5cccc(C(F)(F)F)c5)c4c3c2)cn1 [Torin 2] + Cc1nc(Nc2ncc(C(=O)Nc3c(C)cccc3Cl)s2)cc(N2CCN(CCO)CC2)n1 [dasatinib]	< 3 nM	< 3 nM	11.2 nM	22.6 nM	12.3 nM	6.44 nM		14.9 nM	0.0396	0.00374	0.0422	0.033	0.00828	0.0283	0.0129	0.00805	0.828	0.422	0.961	0.382	0.756	0.777	0.828	0.727

More lines, main results first:

GI50 of drug [2]	GI50 of drug [4]	Structure (SMILES)	GI50 of drug [1]	GI50 of drug [3]	GI50 of drug [5]	GI50 of drug [6]	GI50 of drug [7]	GI50 of drug [8]	minimum viability across doses [9]	minimum viability across doses [10]	minimum viability across doses [11]	minimum viability across doses [12]	minimum viability across doses [13]	minimum viability across doses [14]	minimum viability across doses [15]	minimum viability across doses [16]	AUC of dose-response viability curve [17]	AUC of dose-response viability curve [18]	AUC of dose-response viability curve [19]	AUC of dose-response viability curve [20]	AUC of dose-response viability curve [21]	AUC of dose-response viability curve [22]	AUC of dose-response viability curve [23]	AUC of dose-response viability curve [24]
> 10000 nM	> 10000 nM	O=C1NC(=O)/C(=C/c2ccc3c(c2)OC(F)(F)O3)S1 + Cc1nc(Nc2ncc(C(=O)Nc3c(C)cccc3Cl)s2)cc(N2CCN(CCO)CC2)n1 [dasatinib]	> 10000 nM	> 10000 nM	> 10000 nM	> 10000 nM	> 10000 nM	> 10000 nM	0.679	0.543	0.925	0.538	0.634	0.645	0.655	1.28	2.51	2.32	3.79	2.11	2.42	2.34	2.52	4.77
497 nM and 187 nM	79.9 nM and 106 nM	Cc1cnc(Nc2ccc(N3CCN(C)CC3)cc2)nc1Nc1cccc(S(=O)(=O)NC(C)(C)C)c1 + Cc1nc(Nc2ncc(C(=O)Nc3c(C)cccc3Cl)s2)cc(N2CCN(CCO)CC2)n1 [dasatinib]	878 nM and 719 nM	4270 nM and 3210 nM	271 nM and 152 nM	746 nM and 690 nM	336 nM and 309 nM	903 nM and 821 nM	0.0284 and 0.0197	0.0113 and 0.0115	0.176 and 0.14	0.00194 and 0.00321	0.00497 and 0.00392		0.00138 and 0.00232	0.0085 and 0.0129	1.99 and 2	1.88 and 1.72	3.36 and 2.9	1.25 and 1.24	1.56 and 1.46	1.85 and 1.91	1.73 and 1.65	3.14 and 3
3740 nM	631 nM	CN(C)Cc1cccc(N/C(=C2\C(=O)Nc3cc(C(=O)N(C)C)ccc32)c2ccccc2)c1 + Cc1nc(Nc2ncc(C(=O)Nc3c(C)cccc3Cl)s2)cc(N2CCN(CCO)CC2)n1 [dasatinib]	> 10000 nM	9880 nM	1120 nM	2480 nM	5620 nM	7140 nM	0.561	0.348	0.473	0.0657	0.0645	0.229	0.386	0.0229	2.43	2.19	3.5	1.61	2.09	2.35	2.49	3.62
656 nM	85.7 nM	Cc1n[nH]c2ccc(-c3cncc(OC[C@@H](N)Cc4ccccc4)c3)cc12 + Cc1nc(Nc2ncc(C(=O)Nc3c(C)cccc3Cl)s2)cc(N2CCN(CCO)CC2)n1 [dasatinib]	1050 nM	1260 nM	224 nM	1530 nM	1130 nM	984 nM	0.00989	0.0069	0.012	0.00362	0.0702	0.0087	0.166	0.00975	1.98	1.77	2.92	1.42	1.57	1.9	2.16	1.97
402 nM	68.8 nM	Cc1ccc(C(=O)Nc2ccc(CN3CCN(C)CC3)c(C(F)(F)F)c2)cc1C#Cc1cnc2cccnn12 + Cc1nc(Nc2ncc(C(=O)Nc3c(C)cccc3Cl)s2)cc(N2CCN(CCO)CC2)n1 [dasatinib]	624 nM	935 nM	127 nM	230 nM	390 nM	311 nM																
